Test results taken from patent US20200368205A1, “METHODS AND COMBINATION THERAPY TO TREAT CANCER” (ARRAY BIOPHARMA INC., priority 2018, published 2020).

Experiments:
Experiment in all cases: MHC class I cell surface expression, flow cytometry
Assay type in all cases: cell-based, human
A375 (BRAF V600E) cells = conditions: 72 hours
Procedure: (§1) The goal of this study was to measure the effects of binimetinib on cell surface MHC class I expression in various melanoma cell lines. In this study, eight melanoma cell lines were evaluated: MEL-JUSO (NRAS Q61L mutation), IPC-298 (NRAS Q61L mutation), A375 (BRAF V600E, homozygous mutation), HS936.T (NRAS Q61K mutation and BRAF N581K mutation), MM485 (NRAS Q61R mutation), SK-MEL-2 (NRAS Q61R mutation), MM415 (NRAS Q61L mutation), Malme-3M (BRAF V600E, heterozygous mutation). The cells lines were seeded into flat bottom 96-well tissue culture plates at a density of 5000 cells per well and allowed to adhere overnight. The following day cells were treated with vehicle control (0.25% DMSO) or varying dilutions of Binimetinib (0.7 nM-25000 nM) for 1 hour. Cells were then treated with vehicle control or 100 ng/ml IFNgamma (R&D systems) for 72 hours. Cells were washed, trypsinized, and stained with Alexa Fluor® 647 anti-human HLA-A,B,C antibody (W6/32, eBioscience) and analyzed on a BD FACSCanto II flow cytometer. An IFNg titration and time course were performed for assay optimization. Maximal induction of MHC class I expression was seen ˜100 ng/mL of IFNγ (see, e.g., FIGS. 1 and 2).

MM415 (NRAS Q61L) cells = conditions: 72 hours
Procedure: as §1

[1] = test system: MELJUSO (NRAS Q61L) cells; conditions: for Maximal Fold Increase in MHC Class I Expression: MELJUSO (NRAS Q61L), 72 hours
Procedure: as §1

IPC298 (NRAS Q61L) cells = conditions: 72 hours
Procedure: as §1

MM485 (NRAS Q61R) cells = conditions: 72 hours
Procedure: as §1

[2] = test system: HS936.T (NRAS Q61K, BRAF N581K) cells; conditions: 72 hours
Procedure: as §1

[3] = test system: SKMEL-2 (NRAS Q61R) cells; conditions: 72 hours
Procedure: as §1

[4] = test system: Malme-3M (BRAF V600E) cells; conditions: 72 hours
Procedure: as §1

SMILES: Cn1cnc2c(F)c(Nc3ccc(Br)cc3F)c(C(=O)NOCCO)cc21 [Binimetinib, 6-(4-bromo-2-fluorophenylamino)-7-fluoro-3-methyl-3H-benzoimidazole-5-carboxylic acid (2-hydroxyethoxy)-amide]
- Maximal Fold Increase in MHC Class I Expression (A375 (BRAF V600E) cells; +IFNg 100 ng/ml): 4 fold
- Maximal Fold Increase in MHC Class I Expression (A375 (BRAF V600E) cells; −IFNg): 2 fold
- Maximal Fold Increase in MHC Class I Expression (MM415 (NRAS Q61L) cells; +IFNg 100 ng/ml): 2 fold
- Maximal Fold Increase in MHC Class I Expression (MM415 (NRAS Q61L) cells; −IFNg): 0 fold
- increase in MHC class I expression ([1]; MELJUSO (NRAS Q61L) cells, binimetinib alone, FIG. 5A): 2.5 fold
- enhancement of IFNγ-induced MHC class I expression ([1]; MELJUSO (NRAS Q61L) cells, in the presence of 100 ng/mL IFNg): 4-5 fold
- Maximal Fold Increase in MHC Class I Expression ([1]; +IFNg 100 ng/ml): 4 fold
- Maximal Fold Increase in MHC Class I Expression ([1]; −IFNg): 3 fold
- Maximal Fold Increase in MHC Class I Expression (IPC298 (NRAS Q61L) cells; +IFNg 100 ng/ml): 3 fold
- Maximal Fold Increase in MHC Class I Expression (IPC298 (NRAS Q61L) cells; −IFNg): 2 fold
- Maximal Fold Increase in MHC Class I Expression (MM485 (NRAS Q61R) cells; +IFNg 100 ng/ml): 2 fold
- Maximal Fold Increase in MHC Class I Expression (MM485 (NRAS Q61R) cells; −IFNg): 2 fold
- Maximal Fold Increase in MHC Class I Expression ([2]; +IFNg 100 ng/ml): 2 fold
- Maximal Fold Increase in MHC Class I Expression ([2]; −IFNg): 1.5 fold
- Maximal Fold Increase in MHC Class I Expression ([3]; +IFNg 100 ng/ml): 1.5 fold
- Maximal Fold Increase in MHC Class I Expression ([3]; −IFNg): 2 fold
- Maximal Fold Increase in MHC Class I Expression ([4]; +IFNg 100 ng/ml): 1.5 fold
- Maximal Fold Increase in MHC Class I Expression ([4]; −IFNg): 0 fold
